Data as given in PubChem BioAssay AID588655 (The Scripps Research Institute Molecular Screening Center, 2011).

Tests used:
[1] = tested on: HT29 cells, phospho-ERK1/2 western blot, 24 h; assay: altered phosphorylated MAPK1 amounts in cells – HT29 cells, chemiluminescent western blot, powder samples, counter-screen for KLF5 inhibitor project, late-stage follow-up (AID 588655); details: measured here: phospho-ERK fold change vs DMSO; at 10 µM
[2] = target: Mitogen-activated protein kinase 1 (Homo sapiens) (UniProt P28482); assay: as above; details: HT29 cells, phospho-ERK1/2 western blot, 24 h; at 10 µM; stronger effect = higher value
Chain of Mitogen-activated protein kinase 1 (Homo sapiens) (P28482 whole entry, looked up): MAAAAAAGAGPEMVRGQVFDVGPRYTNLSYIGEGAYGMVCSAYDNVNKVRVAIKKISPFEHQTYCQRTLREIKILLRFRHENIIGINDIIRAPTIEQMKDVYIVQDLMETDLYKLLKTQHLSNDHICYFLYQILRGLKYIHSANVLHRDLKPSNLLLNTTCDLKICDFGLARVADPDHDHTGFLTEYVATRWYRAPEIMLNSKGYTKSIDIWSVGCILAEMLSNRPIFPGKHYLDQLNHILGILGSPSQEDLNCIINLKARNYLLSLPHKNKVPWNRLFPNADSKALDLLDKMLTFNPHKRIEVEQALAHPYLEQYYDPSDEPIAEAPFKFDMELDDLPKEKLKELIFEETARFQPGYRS

SMILES	fold change [1]	phospho-ERK1/2 band inhibition vs DMSO (stronger effect = higher value) [2] [%]
CN(C(=O)CNC(=O)/C=C/c1cccc(Cl)c1)C1CCS(=O)(=O)C1 (stereo unspecified)	-1.52	34.3
CN(C(=O)COC(=O)/C=C/c1cccc([N+](=O)[O-])c1)C1CCS(=O)(=O)C1 (stereo unspecified)	-1.63	38.6
CN(C(=O)CNC(=O)/C=C/c1cccc(Cl)c1)C1CCS(=O)(=O)CC1	-2.02	50.5
